Values of other authors, collected in patent US6838451B1, “Methods and compositions for the prevention and treatment of inflammation, osteoarthritis, and other degenerative joint diseases” (Pharmanutrients, priority 2000, dated 2005).

Assays:
[1] = dietary supplement

excreted as exhaled carbon dioxide (of the absorbed glucosamine) [%] | excreted in the urine (of the absorbed glucosamine) [%] | remaining in the tissues (of the absorbed glucosamine) [%] | absorbed from the small intestine (sulfate form) | Molecule | toxicity [1]
65 | 25 | 10 | over 90% | N[C@H]1C(O)O[C@H](CO)[C@@H](O)[C@@H]1O (some centres unmarked) [glucosamine] | –
– | – | – | – | conjugated linoleic acid | nontoxic
